Measurements reported in patent US20130197016A1, “DOSING REGIMES FOR THE TREATMENT OF OCULAR VASCULAR DISEASE” (priority 2010, published 2013).
Entries after “also recorded” stand apart in the source; their conditions may differ. Like-named read-outs stand apart in the source and are kept apart here.

Legend:
[1] = system: laser-induced choroidal neovascularization (CNV) area; experiment: Rat laser-induced choroidal neovascularization (CNV) model; daily administration (Example 1); type: in vivo, Brown Norway rats; settings: 264 h, read-out: Efficacy Daily % (Ex. 1); for inhibition in vivo at 1 mg/kg: 1 mg/kg oral daily to day 11 or 12, formulation A; for inhibition in vivo at 0.3 mg/kg: 0.3 mg/kg oral daily to day 11 or 12, formulation A
Protocol: Three month old Brown Norway rats were administered with placebo or active agent of Table 1 at the dosing concentration and formulation specified in Table 2 infra about one hour prior to laser application. The rat eyes were dilated with one drop of phenylephrine and cyclopentolate (Altaire Pharmaceuticals inc. Aqueboque, N.Y. and Akorn Inc. Lake Forest, Ill.) and then immobilized. Each eye was administered four laser burns 2-3 disc diameters from the optic nerve with an Oculight GLx 532 nm laser (Iridex). Each study group had 10 rats, 20 eyes and 80 data points.
After laser insult, the rats were administered placebo or the compounds of Table 1 at the dosing concentration and formulation specified in Table 2 daily from day 1 to day 11 or 12. Immediately before harvesting the eyes, rodents were injected i.v. with a 2,000 kd fluorescein isothiocyanate (FITC) dextran vascular label. Tissues were harvested about 24 hours after the last dose was administered.
Eyes were fixed with 4% paraformaldehyde and the retinal pigment epithelium(RPE)/choroid/sclera complexes dissected and placed onto microscope slides. Fluorescent images of each CNV lesion were captured and lesion areas were quantified on masked data using Axiovision software (Version 4.5 Zeiss). Inter-group differences were analyzed by one-way analysis of variance (ANOVA) with a Neuman-Keuls post hoc analysis (Prism v. 4.02 by GraphPad Software, Inc. La Jolla Calif.). Efficacy is defined herein to mean the percentage reduction in CNV area after treatment compared to placebo.
Each group consisted of 10 rats, 4 laser burns/eye, and 80 data points/group. Assay length was 11 or 12 days after laser (1 mg/kg n=2, 3 mg/kg n=5, 10 mg/kg n=7, 30 mg/kg n=1).

[2] = system: laser-induced choroidal neovascularization (CNV) area; experiment: Rat laser-induced CNV model; weekly administration (Example 3); type: in vivo, Brown Norway rats; settings: for inhibition in vivo at 1 mg/kg: 1 mg/kg weekly (before laser, day 6 and 13); for Efficacy in a weekly dosing regimen: weekly dosing at doses of Table 2, compared to daily; for inhibition in vivo at 0.3 mg/kg: 0.3 mg/kg weekly (before laser, day 6 and 13); for inhibition in vivo at 3 mg/kg: 3 mg/kg weekly (before laser, day 6 and 13), formulation A (B for Compound 9)
Protocol: After laser insults, the rats were administered the compounds of Table 1 formulated as specified in Table 2 or placebo on day 6 and 13.

[3] = Ocular PK in Brown Norway rats following a single oral dose (Example 5); type: in vivo; settings: for Kp / AUC(0-t): Brown Norway, rat; for Kp: retina/plasma, po; for AUC(0-t): sampling 6-144 hrs; for Concentration over time in posterior eye cup and retina (words, FIG. 3-6): single oral dose per Table 3 (Compound 1 30 mg/kg, Compound 2 10 mg/kg, Compound 9 10 mg/kg)
Protocol: Three month old Brown Norway rats were administered orally with active agent of Table 1 at the dosing concentration and formulation specified in Table 3 infra. […] The ocular tissues collected were the retina and the posterior eye cup.
Ocular tissues were homogenized and plasma proteins precipitated and drug concentration was analyzed by LC-MS/MS.

[4] = system: neovascular adult macular degeneration (AMD); settings: oral, alone or with intravitreal bevacizumab, daily or thrice weekly, three patients; cited from earlier work
[5] = percent reduction in CNV area vs vehicle control
[6] = Rattus norvegicus, 144 h, formulation A, percent reduction in CNV area vs vehicle control, read-out: Efficacy Weekly % (Ex. 3)
[7] = 3 mg/kg oral daily to day 11 or 12, formulation A (B for Compound 9), percent reduction in CNV area vs vehicle control
[8] = Rattus norvegicus, 144 h, percent reduction in CNV area vs vehicle control, read-out: Efficacy Weekly % (Ex. 3)

`Cc1ccc(Nc2nccc(N(C)c3ccc4c(C)n(C)nc4c3)n2)cc1S(N)(=O)=O` [Compound 1, 5-[[4-[(2,3-Dimethyl-2H-indazol-6-yl)methylamino]-2-pyrimidinyl]amino]-2-methylbenzolsulfonamide] showed an inhibition in vivo at 30 mg/kg ([1]; 30 mg/kg oral daily to day 11 or 12, formulation A, percent reduction in CNV area vs vehicle control) of 42%, an inhibition in vivo at 30 mg/kg ([2]; Rattus norvegicus, 144 h, 30 mg/kg weekly (before laser, day 6 and 13), formulation A, percent reduction in CNV area vs vehicle control, read-out: Efficacy Weekly % (Ex. 3)) of 50% and a Kp ([3]; 30 mg/kg) of 0.2. For the same molecule, the AUC(0-t) ([3]; single oral dose 30 mg/kg, plasma, read-out: AUC(last) Plasma) was 583 µM·h, the AUC(0-t) ([3]; single oral dose 30 mg/kg, posterior eye cup, read-out: AUC(last) PEC) was 6820 µM·h and the AUC(0-t) ([3]; single oral dose 30 mg/kg, retina, read-out: AUC(last) Retina) was 132 µM·h. For the same molecule, the “Plasma exposure over time (words, FIG. 3-4)” value ([3]; single oral dose per Table 3 (Compound 1 30 mg/kg, Compound 2 10 mg/kg)) was “increased plasma exposure throughout the duration of the week after administration” and the “Concentration over time in posterior eye cup and retina (words, FIG. 3-6)” value [3] was “sustained ocular exposure in the posterior eye cup tissues for at least a week”.
In the case of `Nc1cc(Oc2ccc3c(C(=O)Nc4cccc(C(F)(F)F)c4)cccc3c2)ncn1` [Compound 3, 6-(6-Amino-pyrimidin-4-yloxy)-naphthalene-1-carboxylic acid (3-trifluoromethyl-phenyl)-amide], the inhibition in vivo at 1 mg/kg [1, 5] is reported as 63%, the inhibition in vivo at 1 mg/kg [2, 6] is reported as 57% and the “Efficacy in a weekly dosing regimen” value [2] is reported as “greatest level of efficacy”.
In the case of `CC(=O)N1Cc2ncnc(Oc3ccc4c(ccn4C(=O)Nc4cc(C5CC5)on4)c3)c2C[C@@H]1C` [Compound 4, (−)-5-((S)-7-Acetyl-6-methyl-5,6,7,8-tetrahydro-pyrido[3,4-d]pyrimidin-4-yloxy)-indole-1-carboxylic acid (5-cyclopropyl-isoxazol-3-yl)-amide], the inhibition in vivo at 0.3 mg/kg [1, 5] is reported as 96% and the inhibition in vivo at 0.3 mg/kg [2, 6] is reported as 50%.
For `CC1(c2cc(NC(=O)n3ccc4cc(Oc5ncnc6c5CCNC6)ccc43)[nH]n2)CC1` [Compound 5, 5-(5,6,7,8-Tetrahydro-pyrido[3,4-d]pyrimidin-4-yloxy)-indole-1-carboxylic acid [5-(1-methyl-cyclopropyl)-2H-pyrazol-3-yl]-amide], the inhibition in vivo at 10 mg/kg ([1]; 10 mg/kg oral daily to day 11 or 12, formulation A, percent reduction in CNV area vs vehicle control) was 85% and the inhibition in vivo at 10 mg/kg ([2]; Rattus norvegicus, 144 h, 10 mg/kg weekly (before laser, day 6 and 13), formulation A, percent reduction in CNV area vs vehicle control, read-out: Efficacy Weekly % (Ex. 3)) was 50%.
With `COc1cc2nccc(Oc3ccc(NC(=O)Nc4cc(C)on4)c(Cl)c3)c2cc1OC` [Compound 6, 1-(2-chloro-4-((6,7-dimethoxyquinolin-4-yl)oxy)phenyl)-3-(5-methylisoxazol-3-yl)urea] the inhibition in vivo at 0.3 mg/kg [1, 5] was 79%, the inhibition in vivo at 1 mg/kg [1, 5] was 96% and the “Loss of efficacy in weekly dosing compared to daily dosing” value ([2]; 0.3 mg/kg) was 39%. For the same molecule, the inhibition in vivo at 0.3 mg/kg [2, 6] was 40%, the inhibition in vivo at 1 mg/kg [2, 6] was 90% and the “Efficacy in a weekly dosing regimen” value [2] was “greatest level of efficacy”. It also gave a Kp ([3]; 0.3 mg/kg) of 0.6, an AUC(0-t) ([3]; single oral dose 0.3 mg/kg, plasma, read-out: AUC(last) Plasma) of 1.2 µM·h and an AUC(0-t) ([3]; single oral dose 0.3 mg/kg, posterior eye cup, read-out: AUC(last) PEC) of 83.5 µM·h. For the same molecule, the AUC(0-t) ([3]; single oral dose 0.3 mg/kg, retina, read-out: AUC(last) Retina) was 2.47 µM·h and the “Retinal to plasma exposure ratio, comparison among compounds” value ([3]; single oral dose per Table 3 (Compound 2 10 mg/kg, Compound 6 0.3 mg/kg)) was “lower retinal to plasma exposure ratio than Compound 2”.
`O=C(Nc1cccc(C(F)(F)F)c1)c1cccc2cc(Oc3cc(CO)ncn3)ccc12` [Compound 7, 6-(6-Hydroxymethyl-pyrimidin-4-yloxy)-naphthalene-1-carboxylic acid (3-trifluoromethyl-phenyl)-amide] showed an inhibition in vivo at 3 mg/kg [1, 7] of 96% and an inhibition in vivo at 3 mg/kg [2, 8] of 46%.
In the case of `O=C(Nc1cc(C2CC2)on1)n1ccc2cc(Oc3ncnc4c3CNC4)ccc21` [Compound 8, 5-(6,7-dihydro-5H-pyrrolo[3,4-d]pyrimidin-4-yloxy)-indole-1-carboxylic acid (5-cyclopropyl-isoxazol-3-yl)-amide], the inhibition in vivo at 3 mg/kg [1, 7] is reported as 88%, the inhibition in vivo at 3 mg/kg [2, 8] is reported as 26% and the “Efficacy in a weekly dosing regimen” value [2] is reported as “least efficacy”.
For `CNC(=O)c1cc(Oc2ccc(NC(=O)Nc3ccc(Cl)c(C(F)(F)F)c3)cc2)ccn1` [Compound 9, 4-[4-[[4-chloro-3-(trifluoromethyl)phenyl]carbamoylamino]phenoxy]-N-methyl-pyridine-2-carboxamide], the inhibition in vivo at 3 mg/kg ([1]; po) was 90%, the inhibition in vivo at 3 mg/kg [2, 8] was 26% and the “Efficacy in a weekly dosing regimen” value [2] was “least efficacy; also recorded: absence of efficacy”. The Kp ([3]; 10 mg/kg) was 2.1, the AUC(0-t) ([3]; single oral dose 10 mg/kg, plasma, read-out: AUC(last) Plasma) was 151 µM·h and the AUC(0-t) ([3]; single oral dose 10 mg/kg, posterior eye cup, read-out: AUC(last) PEC) was 82 µM·h. For the same molecule, the AUC(0-t) ([3]; single oral dose 10 mg/kg, retina, read-out: AUC(last) Retina) was 95.1 µM·h, the “Concentration over time in posterior eye cup and retina (words, FIG. 3-6)” value [3] was “substantially similar at each sampling time point” and the “Benefit in neovascular AMD patients” value [4] was “uncertain benefit”.
With `CNCc1cc(Oc2ccc3c(ccn3C(=O)Nc3cc(C(F)(F)F)n(C)n3)c2)ncn1` [Compound 10, 5-(6-Methylaminomethyl-pyrimidin-4-yloxy)-indole-1-carboxylic acid (1-methyl-5-trifluoromethyl-1H-pyrazol-3-yl)-amide] the inhibition in vivo at 1 mg/kg [1, 5] was 88%, the inhibition in vivo at 1 mg/kg [2, 6] was 23% and the “Efficacy in a weekly dosing regimen” value [2] was “least efficacy”.
